Measured values reported in the NIST ThermoML archive (doi:10.1021/je060313v).

Columns and labels:
[1] = for speed of sound / mass density / viscosity: 101.33 kPa, Liquid; for speed of sound: Sing-around technique in a fixed-path interferometer; for mass density: Vibrating tube method; for surface tension liquid-gas: Drop weight; for viscosity: Capillary tube (Ostwald / Ubbelohde) method
[2] = refractive index (Na D-line) (dimensionless); conditions: 101.33 kPa, Liquid, Standard Abbe refractometry

CCCCn1cc[n+](C)c1.COS(=O)(=O)[O-] [1-butyl-3-methylimidazolium methyl sulfate]
Conditions | mass density, [1] [kg/m3] | refractive index, [2] | speed of sound, [1] [m/s] | surface tension liquid-gas, [1] [mN/m] | viscosity, [1] [mPa·s]
278.15 K | 1225.84 | – | 1708.3 | – | –
283.15 K | 1222.44 | 1.48351 | 1695.8 | 45.9 | –
288.15 K | 1219.03 | 1.48213 | 1683.4 | 45 | –
293.15 K | 1215.62 | 1.48076 | 1670.9 | 44.1 | 288.99
298.15 K | 1212.22 | 1.47942 | 1658.4 | 43.3 | 213.19
303.15 K | 1208.81 | 1.47805 | 1646 | 42.8 | 160.93
308.15 K | 1205.41 | 1.47671 | 1633.5 | 42.3 | 123.73
313.15 K | 1202.04 | 1.47536 | 1621.1 | 41.8 | 96.83
318.15 K | 1198.66 | 1.474 | 1608.6 | – | 77.08
323.15 K | 1195.34 | 1.47266 | 1596.1 | – | 62.22
328.15 K | 1192.02 | 1.47132 | 1583.7 | – | –
333.15 K | 1188.73 | 1.47 | 1571.2 | – | 42.24
338.15 K | 1185.45 | 1.46864 | 1558.8 | – | –
343.15 K | 1182.19 | 1.46725 | 1546.3 | – | 29.99
